Test results published in ChEMBL document CHEMBL1135413, “Arylamidrazones as novel corticotropin releasing factor receptor antagonists” (J Med Chem, 2002).

biological target: T1, Corticotropin-releasing factor receptor 1 (Homo sapiens, UniProt P34998); experiment: Binding affinity against human Corticotropin releasing factor receptor 1
T1 sequence (P34998 whole entry): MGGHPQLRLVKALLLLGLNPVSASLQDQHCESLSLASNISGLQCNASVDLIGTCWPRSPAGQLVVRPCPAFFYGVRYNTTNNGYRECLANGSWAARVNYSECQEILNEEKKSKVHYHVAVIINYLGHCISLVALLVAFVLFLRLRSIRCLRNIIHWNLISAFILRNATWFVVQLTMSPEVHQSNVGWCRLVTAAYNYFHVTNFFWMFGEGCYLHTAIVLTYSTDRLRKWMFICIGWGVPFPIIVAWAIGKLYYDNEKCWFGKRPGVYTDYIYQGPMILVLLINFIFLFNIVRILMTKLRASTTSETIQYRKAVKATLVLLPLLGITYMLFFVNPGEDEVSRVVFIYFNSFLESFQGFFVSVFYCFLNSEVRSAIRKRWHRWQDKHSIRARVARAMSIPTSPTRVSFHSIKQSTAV

Row | Compound | Ki [µM]
1 | CC(=O)C(=NNc1ccccc1Cl)Nc1cccc(Cl)c1 | 0.417
2 | COc1cccc(NC(=NNc2ccccc2C)C(C)=O)c1 | 1.4
3 | CC(=O)/C(=N\c1ccccc1Cl)NNc1ccccc1C#N | > 10
4 | CC(=O)C(=NNc1ccccc1S(N)(=O)=O)Nc1cccc(Cl)c1 | > 10
5 | CC(=O)C(=NNc1ccccc1C(F)(F)F)Nc1cccc(Cl)c1 | 0.538
6 | CC(=O)/C(=N\c1cccc(F)c1)NNc1ccccc1Cl | 0.043
7 | CC(=O)C(=NNc1ccccc1C(F)(F)F)Nc1cccc(C(F)(F)F)c1 | > 10
8 | C#Cc1cccc(/N=C(/NNc2ccccc2Cl)C(C)=O)c1 | 0.035
9 | CC(=O)/C(=N\c1cccc(C(F)(F)F)c1)NNc1ccccc1C | 0.291
10 | CC(=O)/C(=N\Nc1ccccc1Cl)N(C)c1cccc(Cl)c1 | > 10
11 | CC(=O)/C(=N\Nc1ccccc1C(F)(F)F)N(C)c1cccc(Cl)c1 | > 10
12 | CC(=O)/C(=N\c1ccc(Cl)cc1)NNc1ccccc1C | 1.83
13 | CC(=O)/C(=N\c1cccc(F)c1)NNc1ccccc1C(F)(F)F | 0.197
14 | CC(=O)/C(=N\Nc1ccccc1C#N)Nc1ccc(Cl)cc1 | 2.21
15 | CC(=O)C(=NNc1ccccc1C#N)Nc1ccccc1 | 1.08
16 | CC(=O)/C(=N\Nc1ccccc1C)N(C)c1cccc(Cl)c1 | > 10
17 | CC(=O)/C(=N\Nc1ccccc1[N+](=O)[O-])Oc1cccc(Cl)c1 | > 10
18 | CC(=O)/C(=N\Nc1ccccc1)Nc1cccc(Cl)c1 | 2.72
19 | CC(=O)/C(=N\c1ccccc1)NNc1ccccc1C | 0.526

Row | Compound | Ki [µM]
20 | CC(=O)/C(=N\c1ccccc1)NNc1ccccc1C(F)(F)F | 2.26
21 | CC(=O)C(=NNc1ccccc1C(F)(F)F)Nc1ccccc1Cl | > 10
22 | CC(=O)/C(=N\Nc1ccccc1C#N)N(C)c1cccc(Cl)c1 | > 10
23 | C#Cc1cccc(/N=C(/NNc2ccccc2C)C(C)=O)c1 | 0.062
24 | CC(=O)/C(=N\c1ccc(Cl)cc1)NNc1ccccc1C(F)(F)F | > 10
25 | CSc1cccc(N/C(=N/Nc2ccccc2C(F)(F)F)C(C)=O)c1 | > 10
26 | CC(=O)C(=NNc1ccccc1C(F)(F)F)Nc1cccc(C#N)c1 | > 10
27 | CC(=O)C(=NNc1ccccc1)Nc1ccccc1 | 6.23
28 | CC(=O)/C(=N\c1ccccc1Cl)NNc1ccccc1 | > 10
29 | COc1cccc(NC(=NNc2ccccc2)C(C)=O)c1 | > 10
30 | CC(=O)/C(=N\c1cccc(C)c1)NNc1ccccc1Cl | 0.115
31 | CC(=O)C(=NNc1ccccc1[N+](=O)[O-])Nc1cccc(Cl)c1 | 0.051
32 | CC(=O)/C(=N\Nc1ccccc1C)Sc1cccc(Cl)c1 | > 10
33 | CC(=O)C(=NNc1ccccc1S(C)(=O)=O)Nc1cccc(Cl)c1 | > 10
34 | CSc1cccc(N/C(=N/Nc2ccccc2C)C(C)=O)c1 | > 10
35 | CCOc1cccc(N/C(=N/Nc2ccccc2C)C(C)=O)c1 | > 10
36 | CC(=O)/C(=N\c1cccc(C)c1)NNc1ccccc1C | 0.526
37 | C#Cc1cccc(NC(=NNc2ccccc2C(F)(F)F)C(C)=O)c1 | 0.066
38 | CC(=O)/C(=N\Nc1ccccc1C#N)Nc1cccc(Cl)c1 | 0.415

Row | Compound | Ki [µM]
39 | CC(=O)/C(=N\Nc1ccccc1)N(C)c1cccc(Cl)c1 | > 10
40 | CC(=O)/C(=N\Nc1ccccc1Cl)Sc1cccc(Cl)c1 | > 10
41 | CSc1cccc(N/C(=N/Nc2ccccc2Cl)C(C)=O)c1 | > 10
42 | CC(=O)/C(=N\Nc1ccccc1C)Oc1cccc(Cl)c1 | > 10
43 | CC(=O)/C(=N\c1cccc(F)c1)NNc1ccccc1C | 0.043
44 | CC(=O)/C(=N\Nc1ccccc1)Oc1cccc(Cl)c1 | > 10
45 | CCOc1cccc(NC(=NNc2ccccc2C(F)(F)F)C(C)=O)c1 | > 10
46 | COc1cccc(N/C(=N/Nc2ccccc2C(F)(F)F)C(C)=O)c1 | 6.95
47 | CC(=O)/C(=N\Nc1ccccc1C(F)(F)F)Oc1cccc(Cl)c1 | > 10
48 | CCOc1cccc(NC(=NNc2ccccc2Cl)C(C)=O)c1 | > 10
49 | CC(=O)/C(=N\c1ccccc1Cl)NNc1ccccc1C | > 10
50 | CC(=O)/C(=N\c1ccccc1Cl)NNc1ccccc1Cl | > 10
51 | CC(=O)/C(=N\c1ccccc1)NNc1ccccc1Cl | 0.299
52 | COc1cccc(N/C(=N/Nc2ccccc2Cl)C(C)=O)c1 | 0.652
53 | CC(=O)/C(=N\c1cccc(C#N)c1)NNc1ccccc1C | > 10
54 | CC(=O)/C(=N\c1cccc(Cl)c1)NNc1ccc(Br)cc1 | 1.46
55 | CC(=O)/C(=N\Nc1ccccc1C#N)Oc1cccc(C)c1 | 0.65
56 | CC(=O)/C(=N\c1ccc(Cl)cc1)NNc1ccccc1 | > 10
